How the values were obtained:
PC-12 cell = tested on: PC-12 cell
Excerpt: (§1) The patch clamp electrode solution contained 100-mM KCl, 2-mM MgCl2, 1-mM CaCl2, 11-mM EGTA, and 10-mM HEPES; pH was adjusted to 7.2 with KOH.
(§2) In these applications, as discussed above, both the flow rate of the fluids exiting the microchannels and the scan rate of the patch clamped cell are important. […] The width of each channel is 100 μm, the thickness is 50 μm, and the interchannel spacing is 25 μm. The procedure used for fabricating the microchannels and for patch clamping are identical to that described in Example 2 (see above). The patch clamped cell used was a PC-12 cell, which was placed between 10 to 20 micrometers away from the outlets of the microchannels. Channels 1, 3, 5 and 7 were filled with PBS buffer, while channels 2, 4 and 6 were filled with acetylcholine. The flow rate of the fluid streams was 6.8 mm/s.
The channel structure and experimental setup used in Example 3 can be used to carry out dose-response measurements, in which the concentrations of the ligands in each of the ligand streams differ by predetermined amounts. […] In this 7-channel structure, channels 1, 3, 5 and 7 were filled with PBS buffer, whereas channels 2, 4, and 6 were filled with 1 μM, 12 μM, and 200 μM nicotine, respectively. The flow rate used was 3.24 mm/s and the cell-scanning speed was 250 μm/s. The patch-clamped cell was placed between 10 to 20 μm away from the outlet of the microchannel.

PC-12 cells = test: Whole-cell patch clamp current response of PC-12 cells to 1 mM acetylcholine (re-sensitization and scanning experiments); assay type: cell-based; details: decrease of mean whole-cell current
Excerpt: as §1, §2

GABAA receptors = molecular target: T1, GABAA receptors (UniProt P28472+P62813); test: Whole-cell patch clamp antagonist dose-response, bicuculline loaded together with GABA, microfluidic scanning; assay type: cell-based; details: for IC50: with 100 μM GABA
T1 construct: expressed in transfected cells; host or cells: WSS-1 cells
T1 sequence (P62813 28-455): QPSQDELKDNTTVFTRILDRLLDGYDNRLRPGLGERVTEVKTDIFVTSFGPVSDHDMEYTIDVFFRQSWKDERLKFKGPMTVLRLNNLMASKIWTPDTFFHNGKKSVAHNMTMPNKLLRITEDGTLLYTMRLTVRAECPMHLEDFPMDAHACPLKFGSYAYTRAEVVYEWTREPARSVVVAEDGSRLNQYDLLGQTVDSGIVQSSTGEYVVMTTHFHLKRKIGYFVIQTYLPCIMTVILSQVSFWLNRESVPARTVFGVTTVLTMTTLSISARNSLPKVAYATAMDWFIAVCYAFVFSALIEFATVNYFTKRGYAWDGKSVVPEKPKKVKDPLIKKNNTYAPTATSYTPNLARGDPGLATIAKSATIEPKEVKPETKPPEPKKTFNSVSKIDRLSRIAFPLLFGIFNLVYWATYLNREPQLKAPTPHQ
T1 sequence (P28472 26-473): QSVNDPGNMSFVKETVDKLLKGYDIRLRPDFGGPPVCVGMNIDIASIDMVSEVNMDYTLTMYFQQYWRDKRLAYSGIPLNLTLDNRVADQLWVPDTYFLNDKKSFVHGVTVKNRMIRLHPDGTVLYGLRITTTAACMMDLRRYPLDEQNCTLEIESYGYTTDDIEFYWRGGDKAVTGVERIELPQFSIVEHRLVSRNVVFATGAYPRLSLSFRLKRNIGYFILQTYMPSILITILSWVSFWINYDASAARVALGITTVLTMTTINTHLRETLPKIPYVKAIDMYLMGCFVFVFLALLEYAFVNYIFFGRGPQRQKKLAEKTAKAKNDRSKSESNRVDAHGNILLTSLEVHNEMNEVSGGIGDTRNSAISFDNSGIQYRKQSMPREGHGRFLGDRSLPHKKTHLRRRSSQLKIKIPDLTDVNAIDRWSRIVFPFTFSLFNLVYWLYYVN
T1 sequence (P18508 39-466 partner): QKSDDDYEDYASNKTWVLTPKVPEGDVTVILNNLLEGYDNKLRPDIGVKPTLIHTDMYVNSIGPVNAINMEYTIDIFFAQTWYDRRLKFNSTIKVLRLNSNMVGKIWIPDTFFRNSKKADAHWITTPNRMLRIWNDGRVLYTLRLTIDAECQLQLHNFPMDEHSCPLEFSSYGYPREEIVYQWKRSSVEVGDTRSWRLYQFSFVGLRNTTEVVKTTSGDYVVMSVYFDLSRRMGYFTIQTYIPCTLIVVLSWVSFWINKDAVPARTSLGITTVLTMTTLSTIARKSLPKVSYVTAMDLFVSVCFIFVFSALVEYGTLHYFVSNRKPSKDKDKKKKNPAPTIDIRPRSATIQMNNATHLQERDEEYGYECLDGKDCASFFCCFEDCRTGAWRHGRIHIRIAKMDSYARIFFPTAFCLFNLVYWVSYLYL
Procedure: Electrophysiology experiments were performed using a commercially available microfluidic device for patch-clamp (Dynaflow 16, Cellectricon AB, Göteborg Sweden). The device has 16 channels of dimensions 50×57 μm (w×h) separated by 22 μm thick walls at the point of exit into the open volume. The volume of the 16 sample reservoirs is 80 μl and the dimensions of the open volume are 30×35 mm. Prior to experiments the device was loaded with different solutions using a micropipette. A 2 mm thick polycarbonate lid was attached over the sample reservoirs using double adhesive tape (3M, Stockholm, Sweden) to create a closed system. The lid was connected to a syringe with PE tubing and a syringe pump (CMA/100, microinjection pump, Carnegie Medicine, Cambridge, UK) was used to compress the air enclosed by the lid to initiate a well defined pressure driven flow in the channels.
Adherent WSS-1 cells were cultivated in Petri dishes for 4-8 days in (DMEM/F12) medium supplemented with antibiotics and antimycotin (0.2%), fetal calf serum (10%), and L-glutamine. Before the experiments, cells were washed and detached in a HEPES-saline buffer (HBS) containing (in mM): 10 HEPES, 140 NaCl, 5 KCl, 1 CaCl2, 1 MgCl2, and 10 D-glucose (pH 7.4). All chemicals used in the cell cultures were from Sigma-Aldrich (Sigma-Aldrich Sweden AB, Stockholm, Sweden).
Patch clamp experiments were carried out in the whole-cell configuration (holding potential −60 mV, sampling frequency 5 kHz filter frequency 1 KHz). The cell bath solution (HBS) contained 10-mM HEPES, 140 -mM NaCl, 5-mM KCl, 1-mM CaCl2, 1-mM MgCl2, 10-mM D-glucose (pH 7.4). The patch clamp electrode solution contained 100-mM KCl, 2-mM MgCl2, 1-mM CaCl2, 11-mM EGTA, and 10-mM HEPES; pH was adjusted to 7.2 with KOH. The experiments were performed at room temperature (18-22° C.).
The competitive antagonist bicuculline was used at the concentrations of 0.01, 0.1, 1, 5, 10, 100 μM. […] As in the experiments with agonist, every second channel was filled with buffer solution for cleansing, and a resting time in buffer of at least three minutes was used before a return scan was made. Dose-response curves were obtained with texp of 100 ms and 3 s. […] FIGS. 34a and b show the results of a patch-clamp experiment. […] These sample channels were interdigitized with buffer channels in every other channel, and the exposure time were set to either 100 ms or 3 s.

CN1CCCC1c1cccnc1 (centres unmarked) [nicotine]
whole-cell current response (PC-12 cell; 1 μM nicotine): barely discernible
whole-cell current peak (PC-12 cell; 12 μM nicotine): detected with good signal-to-noise ratio

CC(=O)OCC[N+](C)(C)C [acetylcholine]
exposure time to the agonist after which de-sensitization of the current response is observed (PC-12 cells): > 5 s

CN1CCc2cc3c(cc2[C@H]1[C@@H]1OC(=O)c2c1ccc1c2OCO1)OCO3 [bicuculline]
IC20 (GABAA receptors): ~1 µM
IC50 (GABAA receptors; IC50, ascending order, texp=3 s): 8.46 ± 1.4 µM
IC50 (GABAA receptors; IC50, ascending order, texp=100 ms): 5.17 ± 0.4 µM
IC50 (GABAA receptors; IC50, descending order, texp=3 s): 1.84 ± 0.4 µM
IC50 (GABAA receptors; IC50, descending order, texp=100 ms): 3.56 ± 0.9 µM

From patent US7470518B2 (priority 2002, dated 2008)
